Assays:
[1] = system: KLH-specific Th1 cells (clone C3); assay: Cell cycle analysis (DNA content) of IL-2-stimulated Th1 cells; type: cell-based, C57BL/10 mice
Protocol: KLH-specific, Th1 cells (clone C3) are left unstimulated (resting), or are stimulated with IL-2 (10% Con A CM) in the presence or absence of MEB (1 mM). The Th1 cells are collected after 48 hours, and assayed for DNA content.
KLH-specific Th1 cells (clone C3) were stimulated with IL-2 (10% Con A CM) at the initiation of culture, and then again at 24, 48, and 96 hours (FIG. 8A). Some cultures also received a single dose of MEB (1 mM) at times 0, 15, 24 or 39 hours after the initiation of culture (FIGS. 8B, 8C, 8D, and 8E, respectively). The Th1 cells were collected at 0, 48, 72, 96 or 120 hours after the initiation of culture and assayed for DNA content.
If the ability of butyrate and its derivatives to induce Th1 cell tolerance is linked to their ability to block antigen-activated Th1 cells in G1, their therapeutic importance is enhanced if MEB induces G1 cell cycle blockade regardless of when in the cell cycle the compound is added. MEB is added to cultures of IL-2-stimulated Th1 at various time points. In the absence of MEB, it is shown that approximately 50% of IL-2-activated Th1 cells have exited G1 by Day 2 (FIG. 8). I n contrast, if MEB is added at the initiation of culture, over 97% of the IL-2-stimulated Th1 cells remain in G0/G1 for the duration of the experiment (120 hours). […] If MEB is added 24 hours instead of 15 hours after IL-2 stimulation, 89% of the Th1 cells are blocked in G1 phase by 48 h, and the cell cycle profile looks very similar to that obtained if MEB is added at the initiation of culture. Finally, even if MEB is added as late as 39 hours after IL-2 stimulation, 87% of the Th1 cells (as compared to 49.9% of controls) are sequestered in G0/G1 when DNA content is measured at 72 hours.
To examine DNA content, Th1 cells were fixed in prechilled 70% ethanol overnight at 4° C. The fixed Th1 cells were next washed in PBS, resuspended in 1 ml of staining buffer containing RNase (1 mg/ml; Sigma) and propidium iodide (50 μg/ml; Sigma), incubated for 20 minutes in the dark at 20° C., and analyzed by flow cytometry using a FACSCalibur (Becton Dickinson, Moutain View, Calif.). The data were analyzed using the ModFit DNA analysis program (Verity Software House).

[2] = Toxicity in mice treated with MEB; type: in vivo; details: dose approximated 0.7 g/kg/day

## CCCC(=O)OCCN1CCOCC1.Cl [MEB, 2-(4-Morpholinyl)ethyl butyrate hydrochloride]
[1]; IL-2 (10% Con A CM) plus MEB 1 mM, 48 hours
  Th1 cells remaining in G0/G1: essentially all
[1]; MEB 1 mM added 15 hours after IL-2, by 96 hours (control 56.9%)
  IL-2-stimulated Th1 cells in G0/G1: 79.3%
[1]; MEB 1 mM added 24 hours after IL-2, by 48 h
  IL-2-stimulated Th1 cells in G1: 89%
[1]; MEB 1 mM added 39 hours after IL-2, at 72 hours (control 49.9%)
  IL-2-stimulated Th1 cells in G0/G1: 87%
[1]; MEB 1 mM added at initiation of culture, for duration of experiment (120 hours)
  IL-2-stimulated Th1 cells in G0/G1: over 97%
[2]
  Toxicity: No toxicity
